# Values of other authors in patent publication US11052155B2, “Conjugates of CC-1065 analogs and bifunctional linkers” (priority 2010, dated 2021).
# Details: in vivo
structure (smiles),measurement,value
COc1c(O)c2c(c3cc(C(=O)N4CCc5c4c(O)c(OC)c4[nH]c(C(=O)N6CC7CC78C6=CC(=O)c6[nH]cc(C)c68)cc54)[nH]c13)CCN2C(N)=O (stereo not shown) [CC-1065],hepatotoxicity,serious delayed hepatotoxicity
